# Reference: patent publication US9115127B2 (AMGEN INC., priority 2010, dated 2015)
# pIC50: −log10 of the molar value.
# Biological target: T1, wild-type human ALK (cytoplasmic domain, amino acids 1058-1620, N-terminal GST fusion) (Homo sapiens, UniProt Q9UM73)
# T1 construct: The cytoplasmic domain (amino acids 1058-1620) of wild-type human ALK; GST (N); made in house; host or cells: SF9 insect cells
# Assay: ALK Inhibition in Enzyme Assay (Lance TR-FRET kinase assay)
# Type: biochemical
# Method in brief: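 TR-FRET read-out (Eu-W1024 PT66 anti-phosphotyrosine plus streptavidin-allophycocyanin, 320 nm excitation) quantified biotinylated peptide phosphorylation by the purified kinase. Reaction ran 90 minutes at room temperature before quenching with 20 mM EDTA in Tris pH 7.5 buffer with NaCl, BSA and Tween-20.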
# T1 sequence (Q9UM73 1058-1620): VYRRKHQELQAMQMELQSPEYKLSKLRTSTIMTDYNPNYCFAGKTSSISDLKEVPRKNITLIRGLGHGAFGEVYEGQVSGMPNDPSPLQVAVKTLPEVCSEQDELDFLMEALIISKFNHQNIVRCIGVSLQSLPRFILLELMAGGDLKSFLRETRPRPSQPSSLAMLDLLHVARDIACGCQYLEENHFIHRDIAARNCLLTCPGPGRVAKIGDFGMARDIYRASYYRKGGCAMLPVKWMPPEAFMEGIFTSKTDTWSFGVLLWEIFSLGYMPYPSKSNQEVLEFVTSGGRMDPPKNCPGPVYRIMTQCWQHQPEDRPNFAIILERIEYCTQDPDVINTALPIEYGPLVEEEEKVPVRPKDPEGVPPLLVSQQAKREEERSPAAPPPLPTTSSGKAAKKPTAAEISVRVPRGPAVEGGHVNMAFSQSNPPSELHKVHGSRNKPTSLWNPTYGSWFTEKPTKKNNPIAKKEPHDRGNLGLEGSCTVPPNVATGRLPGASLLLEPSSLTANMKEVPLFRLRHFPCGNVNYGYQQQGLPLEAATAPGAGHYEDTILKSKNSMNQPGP
row,SMILES,pIC50
1,"CC(C)NC(=O)[C@H]1CC[C@@H](n2/c(=N/C(=O)c3ccc(F)cc3)[nH]c3ccc(CN4CCN(CCO)CC4)cc32)CC1 [Example 173, (E)-4-Fluoro-N-(6-((4-(2-hydroxyethyl)piperazin-1-yl)methyl)-1-(cis-4-(isopropylcarbamoyl)cyclohexyl)-1H-benzo[d]imidazol-2(3H)-ylidene)benzamide]",> 7.30
2,"CC(C)NC(=O)[C@H]1CC[C@@H](n2/c(=N/C(=O)c3ccc(F)cc3)[nH]c3ccc(CN4CCCC(C(N)=O)C4)cc32)CC1 (stereo partly drawn) [Example 180, 1-(((E)-2-(4-Fluorobenzoylimino)-3-(cis-4-(isopropylcarbamoyl)-cyclohexyl)-2,3-dihydro-1H-benzo[d]imidazol-5-yl)methyl)piperidine-3-carboxamide]",> 7.30
3,"CC(C)NC(=O)[C@H]1CC[C@@H](n2/c(=N/C(=O)c3ccc(F)cc3)[nH]c3ccc(CN4CCC(S(=O)(=O)O)CC4)cc32)CC1 [Example 181, 1-(((E)-2-(4-Fluorobenzoylimino)-3-(cis-4-(isopropylcarbamoyl)-cyclohexyl)-2,3-dihydro-1H-benzo[d]imidazol-5-yl)methyl)piperidine-4-sulfonic acid]",> 7.30
4,"CC(C)NC(=O)[C@H]1CC[C@@H](n2/c(=N/C(=O)c3ccc(F)cc3)[nH]c3ccc(CN4CCC(C(=O)N5CCOCC5)CC4)cc32)CC1 [Example 182, (E)-4-Fluoro-N-(1-(cis-4-(isopropylcarbamoyl)cyclohexyl)-6-((4-(morpholine-4-carbonyl)piperidin-1-yl)methyl)-1H-benzo[d]imidazol-2(3H)-ylidene)benzamide]",> 7.30
5,"CC(C)NC(=O)[C@H]1CC[C@@H](n2/c(=N/C(=O)c3ccc(F)cc3)[nH]c3ccc(CN4CCC(C)(O)CC4)cc32)CC1 [Example 183, (E)-4-Fluoro-N-(6-((4-hydroxy-4-methylpiperidin-1-yl)methyl)-1-(cis-4-(isopropylcarbamoyl)cyclohexyl)-1H-benzo[d]imidazol-2(3H)-ylidene)benzamide]",> 7.30
6,"CC(C)NC(=O)[C@H]1CC[C@@H](n2/c(=N/C(=O)c3ccc(F)cc3)[nH]c3ccc(CN4CCN(CC(C)(C)O)CC4)cc32)CC1 [Example 185, (E)-4-Fluoro-N-(6-((4-(2-hydroxy-2-methylpropyl)piperazin-1-yl)methyl)-1-(cis-4-(isopropylcarbamoyl)cyclohexyl)-1H-benzo[d]imidazol-2(3H)-ylidene)benzamide]",> 7.30
7,"CC(C)NC(=O)[C@H]1CC[C@@H](n2/c(=N/C(=O)c3ccc(F)cc3)[nH]c3ccc(CN4CCC(C(O)C(F)(F)F)CC4)cc32)CC1 (stereo partly drawn) [Example 186, (E)-4-Fluoro-N-(1-(cis-4-(isopropylcarbamoyl)-cyclohexyl)-6-((4-(2,2,2-trifluoro-1-hydroxyethyl)piperidin-1-yl)methyl)-1H-benzo[d]imidazol-2(3H)-ylidene)benzamide]",> 7.30
8,"CC[N+](CC)(CC)Cc1ccc2[nH]/c(=N\C(=O)c3ccc(F)cc3)n([C@H]3CC[C@@H](C(=O)NC(C)C)CC3)c2c1 [Example 187, N,N-Diethyl-N-(((E)-2-(4-fluorobenzoylimino)-3-(cis-4-(isopropylcarbamoyl)cyclohexyl)-2,3-dihydro-1H-benzo[d]imidazol-5-yl)methyl)ethanaminium chloride]",> 7.30
9,"CC(C)NC(=O)[C@H]1CC[C@@H](n2/c(=N/C(=O)c3ccc(F)cc3)[nH]c3ccc(CN4CCC(CNCC(F)(F)F)CC4)cc32)CC1 [Example 190, (E)-4-Fluoro-N-(1-(cis-4-(isopropylcarbamoyl)cyclohexyl)-6-((4-((2,2,2-trifluoroethylamino)methyl)piperidin-1-yl)methyl)-1H-benzo[d]imidazol-2(3H)-ylidene)benzamide]",> 7.30
10,"CC(C)NC(=O)[C@H]1CC[C@@H](n2/c(=N/C(=O)c3ccc(F)cc3)[nH]c3ccc(CN4CCC(F)(F)CC4)cc32)CC1 [Example 191, (E)-N-(6-((4,4-Difluoropiperidin-1-yl)methyl)-1-(cis-4-(isopropylcarbamoyl)cyclohexyl)-1H-benzo[d]imidazol-2(3H)-ylidene)-4-fluorobenzamide]",> 7.30
11,"COCc1ccc2[nH]/c(=N\C(=O)c3ccc(F)cc3)n([C@H]3CC[C@@H](C(=O)NC(C)C)CC3)c2c1 [Example 192, (E)-4-Fluoro-N-(1-(cis-4-(isopropylcarbamoyl)cyclohexyl)-6-(methoxymethyl)-1H-benzo[d]imidazol-2(3H)-ylidene)benzamide]",> 7.30
12,"CC(C)NC(=O)[C@H]1CC[C@@H](n2/c(=N/C(=O)c3ccc(F)cc3)[nH]c3ccc(Cn4cnnc4)cc32)CC1 [Example 195, (E)-N-(6-((4H-1,2,4-Triazol-4-yl)methyl)-1-(cis-4-(isopropylcarbamoyl)cyclohexyl)-1H-benzo[d]imidazol-2(3H)-ylidene)-4-fluorobenzamide]",> 7.30
13,"CC(C)NC(=O)[C@H]1CC[C@@H](n2/c(=N/C(=O)c3ccc(F)cc3)[nH]c3ccc(CN4CCC(F)(F)C4)cc32)CC1 [Example 196, (E)-N-(6-((3,3-Difluoropyrrolidin-1-yl)methyl)-1-(cis-4-(isopropylcarbamoyl)cyclohexyl)-1H-benzo[d]imidazol-2(3H)-ylidene)-4-fluorobenzamide]",> 7.30
14,"CC(C)NC(=O)[C@H]1CC[C@@H](n2/c(=N/C(=O)c3ccc(F)cc3)[nH]c3ccc(Cn4cccn4)cc32)CC1 [Example 197, (E)-N-(6-((1H-Pyrazol-1-yl)methyl)-1-(cis-4-(isopropylcarbamoyl)cyclohexyl)-1H-benzo[d]imidazol-2(3H)-ylidene)-4-fluorobenzamide]",> 7.30
15,"COCCOCc1ccc2[nH]/c(=N\C(=O)c3ccc(F)cc3)n([C@H]3CC[C@@H](C(=O)NC(C)C)CC3)c2c1 [Example 198, (E)-4-Fluoro-N-(1-(cis-4-(isopropylcarbamoyl)cyclohexyl)-6-((2-methoxyethoxy)methyl)-1H-benzo[d]imidazol-2(3H)-ylidene)benzamide]",> 7.30
16,"CC(C)(CO)NC(=O)[C@H]1CC[C@@H](n2/c(=N/C(=O)c3ccc(F)cc3)[nH]c3ccc(CN4CCOCC4)cc32)CC1 [Example 199, (E)-4-Fluoro-N-(1-(cis-4-(1-hydroxy-2-methylpropan-2-ylcarbamoyl)cyclohexyl)-6-(morpholinomethyl)-1H-benzo[d]imidazol-2(3H)-ylidene)benzamide]",> 7.30
17,"C[C@H](CO)NC(=O)[C@H]1CC[C@@H](n2/c(=N/C(=O)c3ccc(F)cc3)[nH]c3ccc(CN4CCOCC4)cc32)CC1 [Example 200, (E)-4-Fluoro-N-(1-(cis-4-((R)-1-hydroxypropan-2-ylcarbamoyl)cyclohexyl)-6-(morpholinomethyl)-1H-benzo[d]imidazol-2(3H)-ylidene)benzamide]",> 7.30
18,"O=C(/N=c1\[nH]c2ccc(CN3CCOCC3)cc2n1[C@H]1CC[C@@H](C(=O)NCCO)CC1)c1ccc(F)cc1 [Example 201, (E)-4-Fluoro-N-(1-(cis-4-(2-hydroxyethylcarbamoyl)cyclohexyl)-6-(morpholinomethyl)-1H-benzo[d]imidazol-2(3H)-ylidene)benzamide]",> 7.30
19,"O=C(/N=c1\[nH]c2ccc(CN3CCOCC3)cc2n1[C@H]1CC[C@@H](C(=O)N2CCOCC2)CC1)c1ccc(F)cc1 [Example 202, (E)-4-Fluoro-N-(1-(cis-4-(morpholine-4-carbonyl)cyclohexyl)-6-(morpholinomethyl)-1H-benzo[d]imidazol-2(3H)-ylidene)benzamide]",6.00 to 7.00
20,"CN1CCN(C(=O)[C@H]2CC[C@@H](n3/c(=N/C(=O)c4ccc(F)cc4)[nH]c4ccc(CN5CCOCC5)cc43)CC2)CC1 [Example 203, (E)-4-Fluoro-N-(1-(cis-4-(4-methylpiperazine-1-carbonyl)cyclohexyl)-6-(morpholinomethyl)-1H-benzo[d]imidazol-2(3H)-ylidene)benzamide]",6.00 to 7.00
21,"O=C(/N=c1\[nH]c2ccc(CN3CCOCC3)cc2n1[C@H]1CC[C@@H](C(=O)N2CCNCC2)CC1)c1ccc(F)cc1 [Example 204, (E)-4-Fluoro-N-(6-(morpholinomethyl)-1-(cis-4-(piperazine-1-carbonyl)cyclohexyl)-1H-benzo[d]imidazol-2(3H)-ylidene)benzamide]",> 7.30
22,"NC(=O)[C@H]1CC[C@@H](n2/c(=N/C(=O)c3ccc(F)cc3)[nH]c3ccc(CN4CCOCC4)cc32)CC1 [Example 205, (E)-N-(1-(cis-4-Carbamoylcyclohexyl)-6-(morpholinomethyl)-1H-benzo[d]imidazol-2(3H)-ylidene)-4-fluorobenzamide]",> 7.30
23,"CC(C)(O)CNC(=O)[C@H]1CC[C@@H](n2/c(=N/C(=O)c3ccc(F)cc3)[nH]c3ccc(CN4CCOCC4)cc32)CC1 [Example 206, (E)-4-Fluoro-N-(1-(cis-4-(2-hydroxy-2-methylpropylcarbamoyl)-cyclohexyl)-6-(morpholinomethyl)-1H-benzo[d]imidazol-2(3H)-ylidene)benzamide]",7.00 to 7.30
24,"O=C(/N=c1\[nH]c2ccc(CN3CCOCC3)cc2n1[C@H]1CC[C@@H](C(=O)NO)CC1)c1ccc(F)cc1 [Example 207, (E)-4-Fluoro-N-(1-(cis-4-(hydroxycarbamoyl)cyclohexyl)-6-(morpholinomethyl)-1H-benzo[d]imidazol-2(3H)-ylidene)benzamide]",7.00 to 7.30
25,"CONC(=O)[C@H]1CC[C@@H](n2/c(=N/C(=O)c3ccc(F)cc3)[nH]c3ccc(CN4CCOCC4)cc32)CC1 [Example 208, (E)-4-Fluoro-N-(1-(cis-4-(methoxycarbamoyl)cyclohexyl)-6-(morpholinomethyl)-1H-benzo[d]imidazol-2(3H)-ylidene)benzamide]",> 7.30
26,"COC(=O)[C@H]1CC[C@@H](n2/c(=N/C(=O)c3ccc(F)cc3)[nH]c3ccc(CN4CCC(C(C)(C)O)CC4)cc32)CC1 [Example 209, cis-Methyl 4-((E)-2-(4-fluorobenzoylimino)-6-((4-(2-hydroxypropan-2-yl)piperidin-1-yl)methyl)-2,3-dihydro-1H-benzo[d]imidazol-1-yl)cyclohexanecarboxylate]",> 7.30
